The values that follow come from patent US4681872A (priority 1985, dated 1987).

The subject of series [1] is Bact. fragilis 784. As to conditions: BHI agar, 35°-37° C., 20-24 hours.
The subject of a further series is Pseudomonas cepacia 2961. Put plainly: antimicrobial spectrum, agar dilution MIC. Conditions: BHI agar, 35°-37° C., 20-24 hours. On the technique in general: In agar dilution, organisms are placed on agar that contains the substance at set levels.
In series [2] the test system is Pseudomonas aeruginosa K799/WT. Put plainly: antimicrobial spectrum, agar dilution MIC. As to conditions: BHI agar, 35°-37° C., 20-24 hours.
In a further series the test system is Strep. faecium ATCC 8043. Put plainly: antimicrobial spectrum, agar dilution MIC. It counts as cell-based. As to conditions: BHI agar, 35°-37° C., 20-24 hours.
Series [3] deals with Pseudomonas aeruginosa BMH10. Put plainly: antimicrobial spectrum, agar dilution MIC. As to conditions: BHI agar, 35°-37° C., 20-24 hours.
For series [4] the following is noted: beagle dogs, oral, 10.0 mg/kg, buffered solution of the lactobionate salt in water; in comparison to erythromycin A.
The subject of a further series is E. coli SS. Put plainly: antimicrobial spectrum, agar dilution MIC. As to conditions: BHI agar, 35°-37° C., 20-24 hours.
Series [5] concerns Strep. pyogenes M79061-98. Put plainly: antimicrobial spectrum, agar dilution MIC. Conditions: BHI agar, 35°-37° C., 20-24 hours. It is filed as cell-based.
In series [6] the test system is Klebsiella pneumoniae 8045. Put plainly: antimicrobial spectrum, agar dilution MIC. As to conditions: BHI agar, 35°-37° C., 20-24 hours.
In the next series the test system is Strep. pyogenes 930. Put plainly: antimicrobial spectrum, agar dilution MIC. As to conditions: BHI agar, 35°-37° C., 20-24 hours.
For series [7], the system named is Providencia stuartii CMX 640. Put plainly: antimicrobial spectrum, agar dilution MIC. It is filed as cell-based. Conditions: BHI agar, 35°-37° C., 20-24 hours.
In the next series the test system is Micrococcus luteus 4698. Put plainly: antimicrobial spectrum, agar dilution MIC. As to conditions: BHI agar, 35°-37° C., 20-24 hours.
Series [8] has as its system Bact. fragilis 784. Put plainly: microbe, parasite or virus in culture. Conditions: Bacteroides fragilis.
For series [9] the following is noted: human, in vivo; cited from earlier work.

Values after ≈ are worked out from the molar mass of the structure shown. Read-outs that look alike come from different tables or passages of the source.

With `CCC1OC(=O)C(C)C(OC2CC(C)(OC)CC(C)O2)C(C)C(OC2OC(C)CC(N(C)C)C2O)C(C)(O)CC(C)C(=O)C(C)C2OC(=O)OC12C` (stereo not drawn) [4"-deoxyerythromycin A 11,12-carbonate], the MIC result was “.4 µg/mL” against Bact. fragilis 784 [1]; 50 µg/mL (≈ 67.2 µM) with Pseudomonas cepacia 2961; 100 µg/mL (≈ 134 µM) in [2]; “.05 µg/mL” in the series with Strep. faecium ATCC 8043; 50 µg/mL (≈ 67.2 µM) in series [3]; “.2 µg/mL” with E. coli SS. The MIC result in series [5] is “.12 µg/mL”; in [6], 25 µg/mL (≈ 33.6 µM); against Strep. pyogenes 930, 100 µg/mL (≈ 134 µM); in series [7], 100 µg/mL (≈ 134 µM); in the series on Micrococcus luteus 4698 it was “.1 µg/mL”. Further, the half life entry in [4] is listed as “substantially longer half life”. Besides, the peak blood level result in [4] was “markedly higher peak blood level”.

With `CC[C@H]1OC(=O)[C@H](C)[C@@H](O[C@H]2C[C@@](C)(OC)[C@@H](O)[C@H](C)O2)[C@H](C)[C@@H](O[C@@H]2O[C@H](C)C[C@H](N(C)C)[C@H]2O)[C@](C)(O)C[C@@H](C)C(=O)[C@H](C)[C@@H](O)[C@]1(C)O` [Erythromycin A, reference compound], in the series on Bact. fragilis 784 [8], the MIC stood at 1.6 µg/mL (≈ 2.18 µM). In series [9], the serum half-life was 2 to 3 h.
